{"source": "patent US20240415858A1", "about": "“PROMOTING MYELINATION BY N-ACETYLGLUCOSAMINE AND MODULATION OF N-GLYCAN BRANCHING” (THE REGENTS OF THE UNIVERSITY OF CALIFORNIA, priority 2021, published 2024)", "key": {"[1]": {"system": "C57BL/6 mice with cuprizone induced demyelination", "experiment": "Cuprizone induced demyelination / re-myelination model (rotarod, immunofluorescence, electron microscopy)", "type": "in vivo, mouse", "protocol": "Cuprizone at 0.2% induces demyelination in the corpus callosum by 3 weeks, with maximum demyelination at 5-6 weeks. 8-week-old C57BL/6 mice purchased from Jackson Laboratories or 8-week old Mgat5^+/− C57BL/6 mice were treated with 0.2% Cuprizone (Sigma) mixed into milled rodent chow for 6 weeks for the active phase treatment and 5 weeks for the recovery treatment. During active phase treatment, GIcNAc (1 mg/mL) in drinking water or just drinking water (control) was provided for the last 3 weeks of Cuprizone treatment. For the recovery phase treatment, GIcNAc in drinking water or control was provided after Cuprizone treatment had been stopped. Mice were anesthetized and underwent cardiac perfusion with 4% paraformaldehyde in PBS or 4% paraformaldehyde plus 0.5% glutaraldehyde in Sodium cacodylate buffer for immunofluorescence or electron microscopic analysis respectively. Brains were then fixed overnight in perfusion solution\nOne day prior to Cuprizone treatment, mice were trained on the rotarod by allowing them to run three 5-minute trials at a constant 30 rotations per minute (RPM). Mice then underwent weekly testing during Cuprizone and GIcNAc treatment on an accelerating rotarod starting at 4 rpm increasing to 40 rpm over 5 minutes. Latency for mice to fall was recorded. If a mouse was not running on the rotarod by holding on for 3 turns, this was considered a fall. For the active phase treatment, one trial was run every week. For the recovery phase treatment, 3 trials were run for each mouse each week and latencies were averaged. As expected with Cuprizone treatment performance degraded as treatment progressed.\nFor neural stem cell (NSC) immunofluorescence, whole neurospheres were seeded onto laminin-coated coverslips (Neuvitro) in proliferation medium. After 24 hours, proliferation media was removed and replaced with differentiation medium (same components as proliferation medium but excluding EGF, bFGF, and heparin) to induce differentiation. For analysis of mouse brains, brains were incubated in 30% sucrose for at least 72 hours, embedded in OCT (Tissue-tek), frozen for at least 48 hours at −80° C., and then cut at 40 microns on a cryostat. Multiple sections from −1 bregma to −2.5 bregma were then stained with antibodies for MBP (1:100; MAB386, Millipore), Olig2 (1:200; AB9610, Millipore), CC1 (1:100; OP90, Millipore), degraded MBP (1:200, AB5864, Millipore) and Amyloid Precursor Protein (APP, 1:200; clone 22C11). After overnight incubation with primary antibody, tissues were washed and incubated with secondary antibodies: goat anti-rat Alexa-fluor 488 (1:200, Thermofisher), goat anti-rabbit TxRd (1:200, Thermofisher). APP is a marker for neuro-axonal damage while co-staining for CC1 and Olig2 are markers of mature oligodendrocytes. In order to examine the amount of myelin, slices were incubated in Fluoromyelin (1:300; F34651, Thermofisher) for 45 minutes. Images were acquired on a Keyence fluorescence microscope. Mean fluorescence intensity of the medial corpus callosum was measured using ImageJ.\nThree mice from each treatment group (control and GIcNAc) were selected randomly for EM analysis (before other investigations were performed). Portions of these brains from 0 to −1 bregma were rinsed in 0.1 M cacodylate buffer overnight and again for 15 min. the next day. 2×1 mm blocks of the corpus callosum were dissected out and post-fixed with 1% osmium tetroxide in 0.1 M cacodylate buffer for 1 hour, rinsed in ddH20, dehydrated in increasing serial dilutions of ethanol (70%, 85%, 95%, 100%×2) for 10 min each, put in propylene oxide (intermediate solvent) for 2×10 min, incubated in propylene oxide/Spurr's resin (1:1 mix) for 1 h, and then in Spurr's resin overnight. The blocks were put in a fresh change of resin in flat embedding molds the next day and polymerized overnight at 60° C. The blocks were sectioned at 1 μm using a Leica Ultracut UCT ultramicrotome. […]"}, "MS patients [2]": {"system": "MS patients", "experiment": "Open-label Phase 1 trial of oral GIcNAc in MS: safety, tolerability, relapse rate", "type": "in vivo, human", "protocol": "Based on its immunomodulatory effects, a FDA approved (IND 122235) dose escalation was carried out, open-label NIH funded Phase 1 mechanistic clinical trial of oral GIcNAc in MS patients (RRMS and PMS) on glatiramer acetate and not in acute relapse, with the primary endpoint an increase in N-glycan branching in T cells. This endpoint was used as a surrogate marker for GIcNAc's biological activity. Three doses were evaluated: 1 g TID (3 g total, n=13), 2 g TID (6 g total, n=18) and 4 g TID (12 g total, n=16). Subjects had baseline blood drawn weekly four times, then started on oral GIcNAc with 4 weekly blood draws (FIG. 8A).\nThe annualized relapse rate on GIcNAc in the combined group was 0.277 (from a single relapse in a subject on the 6 g dose)."}, "[3]": {"experiment": "Phase 1 trial: serum HexNAc levels by LC-MS/MS", "type": "in vivo, human", "settings": "6 g and 12 g cohorts, after stopping oral GIcNAc"}, "MS patients [4]": {"system": "MS patients", "experiment": "Phase 1 trial: serum neurofilament light chain (Nfl), single molecule array immunoassay", "type": "in vivo, human", "settings": "subjects with elevated baseline Nfl from all three dose groups, week 3 and 4 of treatment, p=0.0045, n=18", "protocol": "Comparison of the change in serum Nfl concentration in subjects with elevated baseline levels (combined from the 3 g, 6 g, and 12 g cohorts) showing change from pre-GIcNAc to during weeks 3-4 of GIcNAc treatment. The four data points pre-GIcNAc (black dots) and the two data points from week 3 and 4 during GIcNAc treatment are averaged, normalized to pre-GIcNAc levels and shown as black and red dots connected by black lines for each subject, respectively. Nfl was measured by an ultra sensitive single molecule array immunoassay. P-value by 1-tailed Wilcoxon matched-pairs signed rank test.\nNeurons exclusively express Nfl and release it when damaged, with high serum Nfl levels (>˜40 pg/ml) serving as a robust biomarker for ongoing neuro-axonal damage in MS. This analysis was done blinded by Jens Kuhle (University of Basel), who has published extensively on Nfl in MS."}, "[5]": {"settings": "mouse, in vivo, po"}, "[6]": {"settings": "GIcNAc only after cuprizone stopped, wildtype 2 weeks, Mgat5+/- 1 or 4 weeks"}, "[7]": {"settings": "Mgat5+/- mice, 4 weeks GIcNAc after 5 weeks cuprizone"}, "[8]": {"settings": "wildtype mice, GIcNAc during final 3 weeks of 6-week cuprizone exposure"}}, "note": "Entries after “also recorded” stand apart in the source; their conditions may differ.", "data": [{"smiles": "CC(=O)N[C@H]1C(O)O[C@H](CO)[C@@H](O)[C@@H]1O", "note": "(stereo partly shown) [GIcNAc, N-acetylglucosamine]", "values": [{"measurement": "degraded MBP (dMBP)/myelin degeneration in the corpus callosum", "setting": "[1]; [6]", "result": "reducing"}, {"measurement": "levels of MBP in the corpus callosum", "setting": "[1]; [6]", "result": "enhanced"}, {"measurement": "levels of myelin (fluoromyelin) in the corpus callosum", "setting": "[1]; [6]", "result": "enhanced"}, {"measurement": "mature oligodendrocytes (CC1 Olig2+) in the corpus callosum", "setting": "[1]; [6]", "result": "enhanced"}, {"measurement": "axon loss (electron microscopy)", "setting": "[1]; [7]", "result": "reducing"}, {"measurement": "degree of myelination (g-ratio, electron microscopy)", "setting": "[1]; [7]", "result": "enhanced"}, {"measurement": "number of degenerating and dystrophic/swollen axons (electron microscopy)", "setting": "[1]; [7]", "result": "reducing"}, {"measurement": "number of myelinated axons (electron microscopy)", "setting": "[1]; [7]", "result": "enhanced"}, {"measurement": "number of paranodes (electron microscopy)", "setting": "[1]; [7]", "result": "enhanced"}, {"measurement": "increase in fluoromyelin staining, 4 versus 1 week of GIcNAc treatment", "setting": "[1]; Mgat5+/- mice, recovery phase", "result": "~2", "unit": "fold"}, {"measurement": "motor function (rotarod fall latency)", "setting": "[1]; wildtype mice, GIcNAc during final 3 weeks of 6-week cuprizone (0.2%) exposure", "result": "prevented loss of motor function"}, {"measurement": "MBP levels in the corpus callosum", "setting": "[1]; [8]", "result": "increasing"}, {"measurement": "axonal damage (accumulation of amyloid precursor protein, APP) in the corpus callosum", "setting": "[1]; [8]", "result": "reducing"}, {"measurement": "annualized relapse rate on GIcNAc", "setting": "MS patients [2]; combined group, a single relapse in a subject on the 6 g dose", "result": 0.277}, {"measurement": "subjects with mild GI symptoms (gas, bloating, loose stool)", "setting": "MS patients [2]; oral, 12 g per day (4 g TID)", "result": "~50", "unit": "%"}, {"measurement": "discontinuation due to GI symptoms", "setting": "MS patients [2]; oral, all doses", "result": "No subject discontinued"}, {"measurement": "safety", "setting": "MS patients [2]; oral, all doses (3 g, 6 g, 12 g per day), 4 weeks", "result": "safe"}, {"measurement": "subjects with mild GI symptoms (gas, bloating, loose stool)", "setting": "MS patients [2]; oral, the other doses (3 g, 6 g per day)", "result": "not"}, {"measurement": "serum HexNAc levels during the washout period", "setting": "[3]", "result": "rapidly declined back to baseline"}, {"measurement": "serum Nfl levels", "setting": "MS patients [4]", "result": "significantly reduced; also recorded: reduces"}, {"measurement": "crossing of the blood brain barrier", "setting": "[5]", "result": "able to cross the blood brain barrier"}, {"measurement": "secretion in breast milk", "setting": "[5]", "result": "secreted at sufficient levels in breast milk to raise UDP-GIcNAc in the brains of suckling pups"}]}]}
